According to the supplement of paper PMC13380429:

Assays:
Details in all cases: 72 h
[1] = tested on: U2OS; assay: relative viability EC50 (midpoint between 100% and the lowest measured viability); higher = less toxic
[2] = tested on: Vero E6; assay: as above
[3] = tested on: Caco-2; assay: as above
[4] = tested on: Calu-3; assay: as above
[5] = tested on: HepG2; assay: as above
[6] = tested on: U2OS; assay: cell viability relative to DMSO; higher = less toxic
[7] = tested on: Vero E6; assay: as above
[8] = tested on: Caco-2; assay: as above
[9] = tested on: Calu-3; assay: as above
[10] = tested on: HepG2; assay: as above
[11] = tested on: U2OS; assay: drug sensitivity score (DSS) for viability; higher = more toxic; extreme values may be limits of the assay
[12] = tested on: Vero E6; assay: as above
[13] = tested on: Caco-2; assay: as above
[14] = tested on: Calu-3; assay: as above
[15] = tested on: HepG2; assay: as above

Row | Structure (SMILES) | relative viability EC50 [1] [µM] | relative viability EC50 [2] [µM] | relative viability EC50 [3] [µM] | relative viability EC50 [4] [µM] | relative viability EC50 [5] [µM] | cell viability ([6]; 1 nM) [%] | cell viability ([6]; 10 nM) [%] | cell viability ([6]; 100 nM) [%] | cell viability ([6]; 1000 nM) [%] | cell viability ([6]; 10000 nM) [%] | cell viability ([7]; 1 nM) [%] | cell viability ([7]; 10 nM) [%] | cell viability ([7]; 100 nM) [%] | cell viability ([7]; 1000 nM) [%] | cell viability ([7]; 10000 nM) [%] | cell viability ([8]; 1 nM) [%] | cell viability ([8]; 10 nM) [%] | cell viability ([8]; 100 nM) [%] | cell viability ([8]; 1000 nM) [%] | cell viability ([8]; 10000 nM) [%] | cell viability ([9]; 1 nM) [%] | cell viability ([9]; 10 nM) [%] | cell viability ([9]; 100 nM) [%] | cell viability ([9]; 1000 nM) [%] | cell viability ([9]; 10000 nM) [%] | cell viability ([10]; 1 nM) [%] | cell viability ([10]; 10 nM) [%] | cell viability ([10]; 100 nM) [%] | cell viability ([10]; 1000 nM) [%] | cell viability ([10]; 10000 nM) [%] | drug sensitivity score [11] | drug sensitivity score [12] | drug sensitivity score [13] | drug sensitivity score [14] | drug sensitivity score [15]
1 | N[C@@H](Cn1oc(=O)[nH]c1=O)C(=O)O [L-quisqualic-acid] | > 10 | > 10 | > 10 | > 10 | > 10 | 99.2 | 104 | 101 | 101 | 95.7 | 101 | 100 | 98.7 | 96.8 | 102 | 99.1 | 94 | 91.9 | 97 | 97.5 | 87.9 | 96.2 | 100 | 93.1 | 94.9 | 89.7 | 99.1 | 91 | 89.8 | 107 | 0 | 0 | 0 | 0 | 0
2 | CNCCCOc1cc(F)c(-c2c(Cl)nc3ncnn3c2N[C@@H](C)C(F)(F)F)c(F)c1 [cevipabulin] | 0.121 | 0.241 | 0.1 | 0.237 | 0.0431 | 94.8 | 102 | 65.8 | 25.6 | 21 | 105 | 106 | 89.5 | 11.6 | 8.3 | 102 | 110 | 72.3 | 44.7 | 48.1 | 106 | 116 | 83.4 | 43.7 | 34.7 | 96.8 | 102 | 29.3 | 21.9 | 22.8 | 18.1 | 17.9 | 13.7 | 12.5 | 22.9
3 | CCN(CC)CCN(Cc1ccc(-c2ccc(C(F)(F)F)cc2)cc1)C(=O)Cn1c(SCc2ccc(F)cc2)nc(=O)c2c1CCC2 [darapladib] | 3.05 | 2.05 | 2.59 | 2.35 | 3.21 | 102 | 98.3 | 103 | 98.4 | 1.6 | 91.9 | 100 | 90.1 | 92.4 | 45.1 | 93.5 | 93.6 | 98.9 | 93.8 | 13 | 102 | 95.7 | 106 | 90.2 | 0.4 | 91.8 | 97.1 | 85.3 | 101 | 0.3 | 5.7 | 4.2 | 5.8 | 7.1 | 5.5
4 | O=C(O)c1cc(=O)c2ccccc2[nH]1 [kynurenic-acid] | > 10 | > 10 | > 10 | > 10 | > 10 | 104 | 101 | 103 | 97 | 98.8 | 96.9 | 98.7 | 97.6 | 97.5 | 97.7 | 94.9 | 101 | 99.6 | 99.6 | 106 | 89.7 | 89.2 | 97.1 | 94.1 | 104 | 93.9 | 94.2 | 99.1 | 108 | 96 | 0 | 0 | 0 | 0 | 0
5 | CC(C)[C@](O)(c1ccc2cc(OC(F)F)c(OC(F)F)cc2c1)c1c[nH]nn1 [VT-464] | > 10 | > 10 | > 10 | > 10 | > 10 | 96.3 | 101 | 99.2 | 102 | 93 | 98.8 | 103 | 99.3 | 98.2 | 94.5 | 93.3 | 103 | 105 | 95.1 | 88.3 | 104 | 101 | 93.2 | 93 | 96.5 | 101 | 104 | 98.1 | 109 | 90.8 | 0 | 0 | 0.2 | 0 | 0
6 | C[C@]12CCC(=O)C(O)=C1CC[C@@H]1[C@@H]2CC[C@]2(C)C(=O)CC[C@@H]12 [formestane] | > 10 | > 10 | > 10 | > 10 | > 10 | 102 | 98.2 | 102 | 95.3 | 105 | 97.8 | 92.4 | 86.7 | 103 | 104 | 114 | 96.9 | 95 | 105 | 117 | 98.7 | 96.1 | 91.4 | 93.8 | 93.3 | 117 | 111 | 108 | 112 | 98.6 | 0 | 0 | 0 | 0 | 0
7 | CN1C(=O)OC(C)(C)C1=O [trimethadione] | > 10 | > 10 | > 10 | > 10 | > 10 | 103 | 99.9 | 103 | 105 | 108 | 100 | 100 | 101 | 85.1 | 104 | 101 | 97.3 | 114 | 90 | 93.3 | 96.1 | 102 | 97.9 | 118 | 108 | 103 | 105 | 93.6 | 80.4 | 90 | 0 | 0 | 0 | 0 | 3.4
8 | COc1cc2c(cc1OC)C1CC(=O)C(CC(C)C)CN1CC2 (stereo not given) [tetrabenazine] | > 10 | > 10 | > 10 | > 10 | > 10 | 95.9 | 99.3 | 94.7 | 93.9 | 103 | 96.6 | 97.8 | 96.2 | 99.1 | 95 | 97.6 | 99.3 | 96.3 | 96.5 | 100 | 107 | 103 | 96.3 | 105 | 104 | 95.1 | 99.4 | 98.8 | 99.9 | 105 | 0 | 0 | 0 | 0 | 0
9 | COc1cc(C(=S)N2CCOCC2)cc(OC)c1OC [sulmetozine] | > 10 | > 10 | > 10 | > 10 | > 10 | 97.2 | 103 | 94.6 | 96.3 | 102 | 103 | 94.7 | 105 | 97.7 | 113 | 90.8 | 98 | 90.6 | 91.6 | 103 | 96.5 | 99.4 | 102 | 99.9 | 105 | 95 | 102 | 98.6 | 111 | 108 | 0 | 0 | 0 | 0 | 0
10 | N[C@@H](CCC(=O)N[C@@H](CSN=O)C(=O)NCC(=O)O)C(=O)O [S-nitrosoglutathione] | > 10 | > 10 | > 10 | > 10 | > 10 | 98 | 97.6 | 92.9 | 98.3 | 101 | 93.6 | 97.2 | 95.2 | 95.2 | 101 | 101 | 98.2 | 96.3 | 87.9 | 99.9 | 94 | 99.2 | 93.9 | 108 | 108 | 102 | 98.4 | 108 | 91.7 | 99 | 0 | 0 | 0 | 0 | 0
11 | O=C(CNC(=O)c1cccc(C(F)(F)F)c1)N[C@@H]1CCN(Cc2ccc(Cl)cc2)C1 [teijin-compound-1] | > 10 | > 10 | > 10 | > 10 | > 10 | 95.7 | 98.5 | 95.6 | 99.7 | 91.1 | 109 | 102 | 100 | 98.1 | 94.8 | 113 | 108 | 106 | 98.8 | 78 | 95.9 | 98.8 | 95.9 | 94.4 | 91.5 | 108 | 110 | 107 | 92 | 83.8 | 0 | 0 | 0.9 | 0 | 1
12 | CC[C@H](CC[C@@H](C)[C@H]1CC[C@H]2[C@@H]3CC=C4C[C@@H](O[C@@H]5O[C@H](CO)[C@@H](O)[C@H](O)[C@H]5O)CC[C@]4(C)[C@H]3CC[C@]12C)C(C)C [daucosterol] | > 10 | > 10 | > 10 | > 10 | > 10 | 97.2 | 98.1 | 101 | 100 | 103 | 95.9 | 100 | 94.5 | 90.5 | 102 | 88.7 | 99.4 | 107 | 102 | 100 | 98.4 | 106 | 99.3 | 108 | 110 | 92.5 | 96.2 | 102 | 101 | 106 | 0 | 0 | 0 | 0 | 0
13 | CC(C)(C)NCC(O)CSc1nc(-c2ccc(C(N)=O)s2)cs1 (stereo not given) [arotinolol] | > 10 | > 10 | > 10 | > 10 | > 10 | 96 | 100 | 99.9 | 102 | 94.6 | 103 | 98.1 | 106 | 108 | 98.4 | 105 | 104 | 90.6 | 106 | 107 | 102 | 98.4 | 107 | 94.1 | 99.9 | 88.7 | 96.9 | 100 | 92.8 | 104 | 0 | 0 | 0 | 0 | 0
